Assay results: US7407667B2, “Pesticidal preparations comprising copolymers” (Clariant Produkte (Deutschland) GmbH, priority 2001, dated 2008)

Tests used:
Format in all cases: in vivo
[1] = tested on: Amaranthus retroflexus (AMARE); assay: Greenhouse herbicidal action of glyphosate test formulations, plant growth assessed on a % scale; details: copolymer 600 g/ha where named, 300 l/ha, after 21 days at 20° C.
Method: (§1) Test formulations were prepared with in each case 200 g, 300 g and 500 g of glyphosate and in each case 600 g of the copolymers I to V in 300 l of water. The data by weight refer to 100% active ingredient and 100% adjuvant. An amount of the formulation corresponding to the ratio 300 l/ha was applied in a greenhouse to the plant species Abutilon theophrasti (ABUTH), Sesbania exaltata (SEBEX), Pharbitis purpurea (PHBPU), Galium aparine (GALAP), Amaranthus retroflexus (AMARE) and Echinochloa crus-galli (ECHCG), and, after 21 days at 20° C., the plant growth was assessed according to a % scale.
(§2) 0% means no effect and 100% means complete destruction of the types of plant.

[2] = tested on: Pharbitis purpurea (PHBPU); assay: as above; details: copolymer 600 g/ha where named, 300 l/ha, after 21 days at 20° C.
Method: as §1, §2

Galium aparine (GALAP) = assay: as above; details: copolymer 600 g/ha where named, 300 l/ha, after 21 days at 20° C.
Method: as §1, §2

[3] = tested on: Sesbania exaltata (SEBEX); assay: as above; details: copolymer 600 g/ha where named, 300 l/ha, after 21 days at 20° C.
Method: as §1, §2

[4] = tested on: Abutilon theophrasti (ABUTH); assay: as above; details: copolymer 600 g/ha where named, 300 l/ha, after 21 days at 20° C.
Method: as §1, §2

[5] = tested on: Echinochloa crus-galli (ECHCG); assay: as above; details: copolymer 600 g/ha where named, 300 l/ha, after 21 days at 20° C.
Method: as §1, §2

[6] = tested on: SEBEX, AMARE, GALAP, ABUTH, ECHCG, PHBPU (Total); assay: Greenhouse herbicidal action of glyphosate test formulations, total over the six plant species; details: copolymer 600 g/ha where named
Method: as §1, §2

O=C(O)CNCP(=O)(O)O [Glyphosate, N-phosphonomethylglycine]
herbicidal action AMARE ([1]; glyphosate 200 g/ha): 20% | herbicidal action AMARE ([1]; glyphosate 300 g/ha): 45% | herbicidal action AMARE ([1]; glyphosate 500 g/ha): 65% | herbicidal action PHBPU ([2]; glyphosate 200 g/ha): 10% | herbicidal action PHBPU ([2]; glyphosate 300 g/ha): 20% | herbicidal action PHBPU ([2]; glyphosate 500 g/ha): 40% | herbicidal action GALAP (Galium aparine (GALAP); glyphosate 200 g/ha): 5% | herbicidal action GALAP (Galium aparine (GALAP); glyphosate 300 g/ha): 20% | herbicidal action GALAP (Galium aparine (GALAP); glyphosate 500 g/ha): 40% | herbicidal action SEBEX ([3]; glyphosate 200 g/ha, 0% no effect, 100% complete destruction): 10% | herbicidal action SEBEX ([3]; glyphosate 300 g/ha): 15% | herbicidal action SEBEX ([3]; glyphosate 500 g/ha): 30% | herbicidal action ABUTH ([4]; glyphosate 200 g/ha): 0% | herbicidal action ABUTH ([4]; glyphosate 300 g/ha): 10% | herbicidal action ABUTH ([4]; glyphosate 500 g/ha): 15% | herbicidal action ECHCG ([5]; glyphosate 200 g/ha): 15% | herbicidal action ECHCG ([5]; glyphosate 300 g/ha): 20% | herbicidal action ECHCG ([5]; glyphosate 500 g/ha): 40% | herbicidal action Total ([6]; glyphosate 200 g/ha): 10% | herbicidal action Total ([6]; glyphosate 300 g/ha): 22% | herbicidal action Total ([6]; glyphosate 500 g/ha): 38%
